From US20100120311A1, “METHOD FOR PROVIDING TEXTILES WITH DESENSITIZED SILVER COMPONENTS” (priority 2006, published 2010)

Test: Visual assessment of discoloration on exposure to light
Settings: benzotriazole up to 5 g/g of silver ions, hydroxylamine hydrochloride up to 3 g/g of silver ions, without pinacryptol yellow

Compound | suppression of discoloration of formulation and textile by stabilizer
Cl.NO [hydroxylamine hydrochloride] | not capable, in the concentration used, of permanently suppressing either the discoloration of the formulation itself or the discoloration of the textile
c1ccc2[nH]nnc2c1 [benzotriazole] | not capable, in the concentration used, of permanently suppressing either the discoloration of the formulation itself or the discoloration of the textile
